# Results taken from US20170210723A1, “MOLECULES HAVING PESTICIDAL UTILITY, AND INTERMEDIATES, COMPOSITIONS, AND PROCESSES, RELATED THERETO” (priority 2016, published 2017).
# How the values were obtained:
# [1] = system: Cabbage Looper (Trichoplusia ni); test: Bioassays on CL, 128-well diet tray assay; format: in vivo; details: Trichoplusia ni, 168 h; 50 μg/cm^2 on artificial diet, second instar larvae, five to seven days; read-out: CL % Control (or Mortality) rating
# Procedure: Bioassays on CL were conducted using a 128-well diet tray assay.
# One to five second instar CL larvae were placed in each well (3 mL) of the diet tray that had been previously filled with 1 mL of artificial diet to which 50 μg/cm^2 of the test molecule (dissolved in 50 μL of 90:10 acetone-water mixture) had been applied (to each of eight wells) and then allowed to dry. Trays were covered with a clear self-adhesive cover and held at 25° C., 14:10 light-dark for five to seven days. Percent mortality was recorded for the larvae in each well; activity in the eight wells was then averaged. The results are indicated in the table entitled “Table ABC: Biological Results” (See Table Section).
# (§1) Bioassays on BAW and CL were conducted according to the procedures outlined in Example A: Bioassays on Beet Armyworm (“BAW”) and Cabbage Looper (“CL”) using the indicated concentrations.
# [2] = system: Beet Armyworm (Spodoptera exigua); test: Bioassays on BAW, 128-well diet tray assay; format: in vivo; details: Spodoptera exigua, 168 h; 50 μg/cm^2 on artificial diet, second instar larvae, five to seven days; read-out: BAW % Control (or Mortality) rating
# Procedure: Bioassays on BAW were conducted using a 128-well diet tray assay. One to five second instar BAW larvae were placed in each well (3 mL) of the diet tray that had been previously filled with 1 mL of artificial diet to which 50 μg/cm^2 of the test molecule (dissolved in 50 μL of 90:10 acetone-water mixture) had been applied (to each of eight wells) and then allowed to dry. Trays were covered with a clear self-adhesive cover and held at 25° C., 14:10 light-dark for five to seven days. Percent mortality was recorded for the larvae in each well; activity in the eight wells was then averaged. The results are indicated in the table entitled “Table ABC: Biological Results” (See Table Section).
# as §1
Compound,mortality at 50 µg/cm2 [1],mortality at 50 µg/cm2 [2]
"CCO/C(=C\C(c1cc(Cl)c(Cl)c(Cl)c1)C(F)(F)F)c1ccc(C(=O)N[C@H](C)C[S+]([O-])CC(F)(F)F)c(C(F)(F)F)c1 (stereo partly drawn) [F30, 4-((Z)-1-ethoxy-4,4,4-trifluoro-3-(3,4,5-trichlorophenyl)but-1-en-1-yl)-N-((2R)-1-((2,2,2-trifluoroethyl)sulfinyl)propan-2-yl)-2-(trifluoromethyl)benzamide]",50 to 100%,50 to 100%
"CO/C(=C\C(c1cc(Cl)c(Cl)c(Cl)c1)C(F)(F)F)c1ccc(C(=O)N[C@H](C)CSCC(F)(F)F)c(C(F)(F)F)c1 (stereo partly drawn) [F31, 4-((Z)-4,4,4-Trifluoro-1-methoxy-3-(3,4,5-trichlorophenyl)but-1-en-1-yl)-N—((R)-1-((2,2,2-trifluoroethyl)thio)propan-2-yl)-2-(trifluoromethyl)benzamide]",50 to 100%,50 to 100%
"C[C@H](CSCC(F)(F)F)NC(=O)c1ccc(/C=C/C(c2cc(Cl)c(Cl)c(Cl)c2)C(F)(F)F)cc1C(F)F (stereo partly drawn) [F32, 2-(Difluoromethyl)-4-((E)-4,4,4-trifluoro-3-(3,4,5-trichlorophenyl)but-1-en-1-yl)-N—((R)-1-((2,2,2-trifluoroethyl)thio)propan-2-yl)benzamide]",50 to 100%,50 to 100%
"CCO/C(=C/C(c1cc(Cl)c(Cl)c(Cl)c1)C(F)(F)F)c1ccc(C(=O)N[C@H](C)CSCC(F)(F)F)c(C(F)(F)F)c1 (stereo partly drawn) [F33, 4-((E)-1-ethoxy-4,4,4-trifluoro-3-(3,4,5-trichlorophenyl)but-1-en-1-yl)-N—((R)-1-((2,2,2-trifluoroethyl)thio)propan-2-yl)-2-(trifluoromethyl)benzamide]",50 to 100%,50 to 100%
"C[C@H](CS(=O)(=O)CC(F)(F)F)NC(=O)c1ccc(/C=C/C(c2cc(Cl)c(Cl)c(Cl)c2)C(F)(F)F)cc1C(F)F (stereo partly drawn) [F43, 2-(Difluoromethyl)-4-((E)-4,4,4-trifluoro-3-(3,4,5-trichlorophenyl)but-1-en-1-yl)-N—((R)-1-((2,2,2-trifluoroethyl)sulfonyl)propan-2-yl)benzamide]",50 to 100%,50 to 100%
"CC(C)(C[S+]([O-])CC(F)(F)F)NC(=O)c1ccc(/C=C/C(c2cc(Cl)c(Cl)c(Cl)c2)C(F)(F)F)cc1C(F)(F)F (stereo not shown) [F47, (E)-N-(2-Methyl-1-((2,2,2-trifluoroethyl)sulfinyl)propan-2-yl)-4-(4,4,4-trifluoro-3-(3,4,5-trichlorophenyl)but-1-en-1-yl)-2-(trifluoromethyl)benzamide]",50 to 100%,50 to 100%
"CCc1cc(/C=C/C(c2cc(Cl)c(Cl)c(Cl)c2)C(F)(F)F)ccc1C(=O)N[C@H](C)C[S+]([O-])CC(F)(F)F (stereo partly drawn) [F55, 2-Ethyl-4-((E)-4,4,4-trifluoro-3-(3,4,5-trichlorophenyl)but-1-en-1-yl)-N-((2R)-1-((2,2,2-trifluoroethyl)sulfinyl)propan-2-yl)benzamide]",50 to 100%,50 to 100%
"C[C@H](CSCC(F)(F)F)NC(=O)c1ccc(/C=C/C(c2cc(Cl)c3c(c2)OCO3)C(F)(F)F)cc1C(F)(F)F (stereo partly drawn) [F75, 4-((E)-3-(7-Chlorobenzo[d][1,3]dioxol-5-yl)-4,4,4-trifluorobut-1-en-1-yl)-N—((R)-1-((2,2,2-trifluoroethyl)thio)propan-2-yl)-2-(trifluoromethyl)benzamide]",50 to 100%,50 to 100%
"C[C@H](CS(=O)(=O)CC(F)(F)F)NC(=O)c1ccc(/C=C/C(c2cc(Cl)c3c(c2)OCO3)C(F)(F)F)cc1C(F)(F)F (stereo partly drawn) [F76, 4-((E)-3-(7-Chlorobenzo[d][1,3]dioxol-5-yl)-4,4,4-trifluorobut-1-en-1-yl)-N—((R)-1-((2,2,2-trifluoroethyl)sulfonyl)propan-2-yl)-2-(trifluoromethyl)benzamide]",50 to 100%,50 to 100%
"CCCS(=O)(=O)C[C@@H](C)NC(=O)c1ccc(/C=C/C(c2cc(Cl)c(Cl)c(Cl)c2)C(F)(F)F)cc1C(F)(F)F (stereo partly drawn) [F79, N—((R)-1-(Propylsulfonyl)propan-2-yl)-4-((E)-4,4,4-trifluoro-3-(3,4,5-trichlorophenyl)but-1-en-1-yl)-2-(trifluoromethyl)benzamide]",50 to 100%,50 to 100%
"CC(C)S(=O)(=O)C[C@@H](C)NC(=O)c1ccc(/C=C/C(c2cc(Cl)c(Cl)c(Cl)c2)C(F)(F)F)cc1C(F)(F)F (stereo partly drawn) [F80, N—((R)-1-(Isopropylsulfonyl)propan-2-yl)-4-((E)-4,4,4-trifluoro-3-(3,4,5-trichlorophenyl)but-1-en-1-yl)-2-(trifluoromethyl)benzamide]",50 to 100%,50 to 100%
"CC(C)CS(=O)(=O)C[C@@H](C)NC(=O)c1ccc(/C=C/C(c2cc(Cl)c(Cl)c(Cl)c2)C(F)(F)F)cc1C(F)(F)F (stereo partly drawn) [F81, N—((R)-1-(Isobutylsulfonyl)propan-2-yl)-4-((E)-4,4,4-trifluoro-3-(3,4,5-trichlorophenyl)but-1-en-1-yl)-2-(trifluoromethyl)benzamide]",50 to 100%,50 to 100%
"CC(C)[S+]([O-])C[C@@H](C)NC(=O)c1ccc(/C=C/C(c2cc(Cl)c(Cl)c(Cl)c2)C(F)(F)F)cc1C(F)(F)F (stereo partly drawn) [F82, N-((2R)-1-(Isopropylsulfinyl)propan-2-yl)-4-((E)-4,4,4-trifluoro-3-(3,4,5-trichlorophenyl)but-1-en-1-yl)-2-(trifluoromethyl)benzamide]",50 to 100%,50 to 100%
"O=C(NCC1(SCC(F)(F)F)COC1)c1ccc(/C=C/C(c2cc(Cl)c(Cl)c(Cl)c2)C(F)(F)F)cc1C(F)(F)F (stereo not shown) [F83, (E)-4-(4,4,4-Trifluoro-3-(3,4,5-trichlorophenyl)but-1-en-1-yl)-N-((3-((2,2,2-trifluoroethyl)thio)oxetan-3-yl)methyl)-2-(trifluoromethyl)benzamide]",50 to 100%,50 to 100%
"C[C@H](CS(=O)(=O)CC(F)(F)F)NC(=O)c1ccc(/C=C/C(c2cc(Cl)c(Cl)c(Cl)c2)C(C)(F)F)cc1C(F)(F)F (stereo partly drawn) [F84, 4-((E)-4,4-Difluoro-3-(3,4,5-trichlorophenyl)pent-1-en-1-yl)-N—((R)-1-((2,2,2-trifluoroethyl)sulfonyl)propan-2-yl)-2-(trifluoromethyl)benzamide]",50 to 100%,50 to 100%
"O=C(NCC1([S+]([O-])CC(F)(F)F)COC1)c1ccc(/C=C/C(c2cc(Cl)c(Cl)c(Cl)c2)C(F)(F)F)cc1C(F)(F)F (stereo not shown) [F107, (E)-4-(4,4,4-Trifluoro-3-(3,4,5-trichlorophenyl)but-1-en-1-yl)-N-((3-((2,2,2-trifluoroethyl)sulfinyl)oxetan-3-yl)methyl)-2-(trifluoromethyl)benzamide]",50 to 100%,50 to 100%
"C[C@H](CSCC(F)(F)F)NC(=O)c1ccc(/C=C/C(c2cc(Cl)c(Cl)c(Cl)c2)C(C)(F)F)cc1C(F)(F)F (stereo partly drawn) [F108, 4-((E)-4,4-Difluoro-3-(3,4,5-trichlorophenyl)pent-1-en-1-yl)-N—((R)-1-((2,2,2-trifluoroethyl)thio)propan-2-yl)-2-(trifluoromethyl)benzamide]",50 to 100%,50 to 100%
